# Measured values from patent US20260297070A1, “CYCLIC [COMPOUND LEFT OUT] WRN INHIBITORS” (Nimbus Wadjet, Inc., priority 2023, published 2026).
# Target: T1, human Werner helicase (WRN-BV08, Uniprot Q14191, amino acids 517-1235 with L1074F point mutation) (Homo sapiens, UniProt Q14191, L1074F)
# T1 construct: Uniprot Q14191, amino acids 517-1235 with L1074F point mutation; TEV-cleavable 8×His (C, cleaved yes); made in house; host or cells: Sf9 insect cells (baculovirus)
# Assay: WRN (BV08) ADP-Glo Assay
# Assay type: biochemical
# Settings: 0.15 nM WRN, 5 μM ATP, 0.1 nM DNA duplex, 15 min preincubation, 60 min at 25° C., pH 7.5, 1% DMSO; read-out: ADP-Glo_hWRN_IC50
# Procedure, shortened: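 ADP produced by WRN helicase fragment 517-1235 (L1074F, baculovirus/Sf9, untagged) read by ADP-Glo luminescence after 60 min at 25 °C with 5 μM ATP and 0.1 nM duplex DNA, following 15 min compound preincubation. Final enzyme 0.15 nM in Bicine pH 7.5 buffer, 1% DMSO; 20 μM NSC-617145 defined full inhibition.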
# T1 sequence (Q14191 with tags, fused parts or gaps L1074F limits assumed): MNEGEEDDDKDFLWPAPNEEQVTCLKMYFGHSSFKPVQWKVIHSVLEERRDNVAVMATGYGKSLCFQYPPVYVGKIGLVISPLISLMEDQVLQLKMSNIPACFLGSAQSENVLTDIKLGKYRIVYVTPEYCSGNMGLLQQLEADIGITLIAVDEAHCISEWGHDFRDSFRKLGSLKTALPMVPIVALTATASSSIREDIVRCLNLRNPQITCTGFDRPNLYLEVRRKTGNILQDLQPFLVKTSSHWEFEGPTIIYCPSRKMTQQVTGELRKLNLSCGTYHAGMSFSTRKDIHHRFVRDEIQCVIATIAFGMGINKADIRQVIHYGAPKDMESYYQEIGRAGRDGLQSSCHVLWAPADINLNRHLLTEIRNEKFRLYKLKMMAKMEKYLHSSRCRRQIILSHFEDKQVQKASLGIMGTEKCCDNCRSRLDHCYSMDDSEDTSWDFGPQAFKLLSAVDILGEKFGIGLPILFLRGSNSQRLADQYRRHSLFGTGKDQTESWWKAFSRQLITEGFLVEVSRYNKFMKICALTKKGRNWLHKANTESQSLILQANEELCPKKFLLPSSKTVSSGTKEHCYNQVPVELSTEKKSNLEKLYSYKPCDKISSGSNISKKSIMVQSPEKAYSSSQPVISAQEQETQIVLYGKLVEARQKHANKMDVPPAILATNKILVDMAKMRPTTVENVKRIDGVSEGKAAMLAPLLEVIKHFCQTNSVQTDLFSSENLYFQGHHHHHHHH
row,IC50 [µM],SMILES
1,< 0.5,"COc1cc(CN(C(=O)C(OC)c2ccc(-c3ccc(F)cc3)cc2F)C2C=CS(=O)(=O)C2)ccn1 (centres unmarked) [I-71, 2-{3,4′-difluoro-[1,1′-biphenyl]-4-yl}-N-(1,1-dioxo-2,3-dihydro-1lambda6-thiophen-3-yl)-2-methoxy-N-[(2-methoxypyridin-4-yl)methyl]acetamide]"
2,0.5 to 5,"O=C(Cn1cc(-c2ccc(F)c(F)c2)cn1)N(Cc1nc(C2CC2)cs1)C1C=CS(=O)(=O)C1 (single isomer, unassigned) [I-604]"
3,> 50,"COc1cc(CN(C(=O)Cc2ccc(-c3csc(C)n3)cc2F)C2C=CS(=O)(=O)C2)ccn1 (centres unmarked) [I-573, N-(1,1-dioxo-2,3-dihydro-1lambda6-thiophen-3-yl)-2-[2-fluoro-4-(2-methyl-1,3-thiazol-4-yl)phenyl]-N-[(2-methoxypyridin-4-yl)methyl]acetamide]"
4,0.5 to 5,"Cc1cccn1-c1ccc(CC(=O)N(Cc2ccnc(N(C)C)c2)C2C=CS(=O)(=O)C2)c(F)c1 (centres unmarked) [I-96, N-{[2-(dimethylamino)pyridin-4-yl]methyl}-N-(1,1-dioxo-2,3-dihydro-1lambda6-thiophen-3-yl)-2-[2-fluoro-4-(2-methyl-1H-pyrrol-1-yl)phenyl]acetamide]"
5,< 0.5,"COc1cc(CN(C(=O)Cc2ccc(S(F)(F)(F)(F)F)cc2F)C2C=CS(=O)(=O)C2)ccn1 (centres unmarked) [I-22, N-(1,1-dioxido-2,3-dihydrothiophen-3-yl)-2-(2-fluoro-4-(pentafluoro-λ^6-sulfaneyl)phenyl)-N-((2-methoxypyridin-4-yl)methyl)acetamide]"
6,> 50,"O=C(Cn1cc(C2CCOC2)cn1)N(Cc1ccncc1)C1C=CS(=O)(=O)C1 (centres unmarked) [I-407, N-(1,1-dioxo-2,3-dihydro-1lambda6-thiophen-3-yl)-2-[4-(oxolan-3-yl)-1H-pyrazol-1-yl]-N-[(pyridin-4-yl)methyl]acetamide]"
7,10 to 50,"O=C(Cc1ccc(S(F)(F)(F)(F)F)cc1)N(CC1CC1)C1C=CS(=O)(=O)C1 (centres unmarked) [I-608, N-(cyclopropylmethyl)-N-(1,1-dioxo-2,3-dihydro-1lambda6-thiophen-3-yl)-2-[4-(pentafluoro-lambda6-sulfanyl)phenyl]acetamide]"
8,5 to 10,"COc1cc(CN(C(=O)C(OCC2COC2)c2ccc(-c3ccc(F)c(F)c3)cc2F)[C@@H]2C=CS(=O)(=O)C2)ccn1 (stereo partly drawn) [I-807, N-[(3R)-1,1-dioxo-2,3-dihydro-1lambda6-thiophen-3-yl]-N-[(2-methoxypyridin-4-yl)methyl]-2-[(oxetan-3-yl)methoxy]-2-{3,3′,4′-trifluoro-[1,1′-biphenyl]-4-yl}acetamide]"
9,10 to 50,"CC(C)Cc1ccc(CC(=O)N(Cc2ccncc2)C2C=CS(=O)(=O)C2)cc1 (centres unmarked) [I-283, N-(1,1-dioxo-2,3-dihydro-1lambda6-thiophen-3-yl)-2-[4-(2-methylpropyl)phenyl]-N-[(pyridin-4-yl)methyl]acetamide]"
10,0.5 to 5,"CNC(=O)C(C(=O)N(Cc1ccnc(C(C)(C)O)c1)C1C=CS(=O)(=O)C1)c1ccc(-c2ccc(F)c(F)c2)cc1F (single isomer, unassigned) [I-690, (2R**)-N′-[(3R*)-1,1-dioxo-2,3-dihydro-1lambda6-thiophen-3-yl]-N′-{[2-(2-hydroxypropan-2-yl)pyridin-4-yl]methyl}-N-methyl-2-{3,3′,4′-trifluoro-[1,1′-biphenyl]-4-yl}propanediamide]"
11,10 to 50,"COc1cc(CN(C(=O)Cn2cc(-c3ccccc3)c(C)n2)[C@@H]2C=CS(=O)(=O)C2)ccn1 [I-596, N-[(3R)-1,1-dioxo-2,3-dihydro-1lambda6-thiophen-3-yl]-N-[(2-methoxypyridin-4-yl)methyl]-2-(3-methyl-4-phenyl-1H-pyrazol-1-yl)acetamide]"
12,> 50,"O=C(Cn1ncc2ccc(C(F)(F)F)cc21)N(Cc1ccncc1)C1C=CS(=O)(=O)C1 (centres unmarked) [I-455, N-(1,1-dioxo-2,3-dihydro-1lambda6-thiophen-3-yl)-N-[(pyridin-4-yl)methyl]-2-[6-(trifluoromethyl)-1H-indazol-1-yl]acetamide]"
13,> 50,"O=C(CN1CCN(c2ccccc2)CC1)N(Cc1ccncc1)C1C=CS(=O)(=O)C1 (centres unmarked) [I-557, N-(1,1-dioxo-2,3-dihydro-1lambda6-thiophen-3-yl)-2-(4-phenylpiperazin-1-yl)-N-[(pyridin-4-yl)methyl]acetamide]"
14,0.5 to 5,"CN(C)C(=O)C(C(=O)N(Cc1ccncc1)C1C=CS(=O)(=O)C1)c1ccc(-c2ccc(F)cc2)cc1 (centres unmarked) [I-104, N′-(1,1-dioxo-2,3-dihydro-1lambda6-thiophen-3-yl)-2-{4′-fluoro-[1,1′-biphenyl]-4-yl}-N,N-dimethyl-N′-[(pyridin-4-yl)methyl]propanediamide]"
15,< 0.5,"COCCN(C)C(=O)C(C(=O)N(Cc1ccnc(C(C)(C)O)c1)[C@@H]1C=CS(=O)(=O)C1)c1ccc(-c2ccc(F)c(F)c2)cc1F (stereo partly drawn) [I-20, N′-[(3R)-1,1-dioxo-2,3-dihydro-1lambda6-thiophen-3-yl]-N′-{[2-(2-hydroxypropan-2-yl)pyridin-4-yl]methyl}-N-(2-methoxyethyl)-N-methyl-2-{3,3′,4′-trifluoro-[1,1′-biphenyl]-4-yl}propanediamide]"
16,0.5 to 5,"O=C(Cc1ccc(-c2ccc(F)cc2)cc1)N(Cc1nc(C2CC2)cs1)C1C=CS(=O)(=O)C1 (centres unmarked) [I-88, N-[(4-cyclopropyl-1,3-thiazol-2-yl)methyl]-N-(1,1-dioxo-2,3-dihydro-1lambda6-thiophen-3-yl)-2-{4′-fluoro-[1,1′-biphenyl]-4-yl}acetamide]"
17,0.5 to 5,"COc1cc(CN(C(=O)C(OCc2cnn(C)c2)c2ccc(-c3ccc(F)c(F)c3)cc2F)[C@@H]2C=CS(=O)(=O)C2)ccn1 (single isomer, unassigned) [I-742, (2R*)-N-[(3R)-1,1-dioxo-2,3-dihydro-1lambda6-thiophen-3-yl]-N-[(2-methoxypyridin-4-yl)methyl]-2-[(1-methyl-1H-pyrazol-4-yl)methoxy]-2-{3,3′,4′-trifluoro-[1,1′-biphenyl]-4-yl}acetamide]"
18,0.5 to 5,"O=C(Cc1ccc(-n2cccc2)cc1)N(Cc1ccncc1)C1C=CS(=O)(=O)C1 (single isomer, unassigned) [I-193]"
19,0.5 to 5,"COc1cc(CN(C(=O)C(OCC2CCOCC2)c2ccc(-c3ccc(F)c(F)c3)cc2F)[C@@H]2C=CS(=O)(=O)C2)ccn1 (stereo partly drawn) [I-811, N-[(3R)-1,1-dioxo-2,3-dihydro-1lambda6-thiophen-3-yl]-N-[(2-methoxypyridin-4-yl)methyl]-2-[(oxan-4-yl)methoxy]-2-{3,3′,4′-trifluoro-[1,1′-biphenyl]-4-yl}acetamide]"
20,> 50,"O=C(Cc1ccc(-n2cccc2)cc1)N(Cc1nc(C2CC2)cs1)[C@H]1C=CS(=O)(=O)C1 [I-402, N-[(4-cyclopropyl-1,3-thiazol-2-yl)methyl]-N-[(3S)-1,1-dioxo-2,3-dihydro-1lambda6-thiophen-3-yl]-2-[4-(1H-pyrrol-1-yl)phenyl]acetamide]"
21,0.5 to 5,"Cc1cccn1-c1ccc(CC(=O)N(Cc2ccncn2)C2C=CS(=O)(=O)C2)c(F)c1 (centres unmarked) [I-181, N-(1,1-dioxo-2,3-dihydro-1lambda6-thiophen-3-yl)-2-[2-fluoro-4-(2-methyl-1H-pyrrol-1-yl)phenyl]-N-[(pyrimidin-4-yl)methyl]acetamide]"
22,> 50,"O=C(C1CCCN(c2ccccc2)C1)N(Cc1ccncc1)C1C=CS(=O)(=O)C1 (centres unmarked) [I-539, N-(1,1-dioxo-2,3-dihydro-1lambda6-thiophen-3-yl)-1-phenyl-N-[(pyridin-4-yl)methyl]piperidine-3-carboxamide]"
23,> 50,"O=C(Cc1ccc2c[nH]nc2c1)N(Cc1ccncc1)C1C=CS(=O)(=O)C1 (centres unmarked) [I-414, N-(1,1-dioxo-2,3-dihydro-1lambda6-thiophen-3-yl)-2-(2H-indazol-6-yl)-N-[(pyridin-4-yl)methyl]acetamide]"
24,0.5 to 5,"CC(C)(O)c1cc(CN(C(=O)Cc2ncc(-c3cc(F)c(F)c(F)c3)s2)C2C=CS(=O)(=O)C2)ccn1 (single isomer, unassigned) [I-794]"
25,> 50,"O=C(Nc1ccc(CC(=O)N(Cc2ccncc2)C2C=CS(=O)(=O)C2)cc1)C1CC1 (centres unmarked) [I-448, N-(4-{[(1,1-dioxo-2,3-dihydro-1lambda6-thiophen-3-yl)[(pyridin-4-yl)methyl]carbamoyl]methyl}phenyl)cyclopropanecarboxamide]"
26,0.5 to 5,"NS(=O)(=O)c1ccc(CN(C(=O)Cc2ccc(-n3cccc3)cc2)C2C=CS(=O)(=O)C2)cc1 (centres unmarked) [I-184, N-(1,1-dioxo-2,3-dihydro-1lambda6-thiophen-3-yl)-2-[4-(1H-pyrrol-1-yl)phenyl]-N-[(4-sulfamoylphenyl)methyl]acetamide]"
27,0.5 to 5,"O=C(Cc1ccc(C2CCCCC2)cc1)N(Cc1ccncc1)C1C=CS(=O)(=O)C1 (centres unmarked) [I-164, 2-(4-cyclohexylphenyl)-N-(1,1-dioxo-2,3-dihydro-1lambda6-thiophen-3-yl)-N-[(pyridin-4-yl)methyl]acetamide]"
28,0.5 to 5,"O=C(Cc1ccc(S(F)(F)(F)(F)F)cc1)N(Cc1noc(C2CC2)n1)C1C=CS(=O)(=O)C1 (centres unmarked) [I-644, N-[(5-cyclopropyl-1,2,4-oxadiazol-3-yl)methyl]-N-(1,1-dioxo-2,3-dihydro-1lambda6-thiophen-3-yl)-2-[4-(pentafluoro-lambda6-sulfanyl)phenyl]acetamide]"
29,< 0.5,"CN(C)C(=O)C(C(=O)N(Cc1ccnc(C(C)(C)O)c1)C1C=CS(=O)(=O)C1)c1ccc(-c2ccc(F)c(F)c2)cc1F (centres unmarked) [I-24, N′-(1,1-dioxo-2,3-dihydro-1lambda6-thiophen-3-yl)-N′-{[2-(2-hydroxypropan-2-yl)pyridin-4-yl]methyl}-N,N-dimethyl-2-{3,3′,4′-trifluoro-[1,1′-biphenyl]-4-yl}propanediamide]"
